In patent US20250099478A1, “PLASMA KALLIKREIN INHIBITORS” (Merck Sharp & Dohme LLC, priority 2022, published 2025) one finds IC50 data, which are given here for 27 molecules.

In test [1] the target is T1, Human plasma kallikrein (Homo sapiens, UniProt P03952).
T1 construct: yields a heavy chain (371 amino acids) and a light chain (248 amino acids); purchased Enzyme Research Laboratories
Briefly: Plasma Kallikrein Assay. Type of test: biochemical. The conditions noted are these: purified Human plasma kallikrein 0.5 nM, substrate Acetyl-K-P-R-AFC; read-out: PKal IC50. A digest of the protocol:
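Purified human plasma kallikrein (0.5 nM) hydrolysing fluorogenic Acetyl-K-P-R-AFC ([…]) in 50 mM HEPES pH 7.4, 150 mM NaCl, 5 mM CaCl2, 0.1% PEG 8000, at rt or 37 °C after enzyme–inhibitor equilibration. IC50 from four-parameter logistic fit; Ki via Cheng–Prusoff.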

The target in test [2] is T2, human factor XIa (Homo sapiens, UniProt P03951).
T2 construct: with human (0.04 nM) factor XIa
Briefly: Factor XIa Assay. The conditions noted are these: human factor XIa 0.04 nM, substrate GPR-AFC, 25° C. Type of test: biochemical. Here is the method: The effectiveness of a compound of the present invention as an inhibitor of Coagulation factor XIa can be determined using a relevant purified serine protease, and an appropriate synthetic substrate. The rate of hydrolysis of the chromogenic or fluorogenic substrate by the relevant serine protease was measured both in the absence and presence of compounds of the present invention. Assays were conducted at rt or at 37° C. […] A decrease in the rate of fluorescence change in the presence of inhibitor is indicative of enzyme inhibition. Such methods are known to one skilled in the art. The results of this assay are expressed as the half-maximal inhibitory concentrations (IC50), or the inhibitory constant, Ki.
Compounds were pre-incubated for 30 min at 25° C. with human (0.04 nM) factor XIa in 50 mM HEPES buffer with 150 mM sodium chloride, 5 mM calcium chloride, 0.1% PEG 8000, pH 7.4. factor XIa enzymatic activity was determined by addition of the substrate glycine-proline-arginine-7-amido-4-trifluoromethylcoumarin (GPR-AFC) and measurement of the fluorescence at 400/505 nm after a 60 min incubation at 25° C. The % inhibition for each data point was calculated from the data and analyzed using the log (inhibitor) vs. response four parameters equation to determine the half-maximal inhibitory concentrations (IC50). The IC50 were converted to equilibrium inhibitory constants (Ki) using the Cheng-Prusoff equation.

T2 sequence (P03951 388-625 limits assumed): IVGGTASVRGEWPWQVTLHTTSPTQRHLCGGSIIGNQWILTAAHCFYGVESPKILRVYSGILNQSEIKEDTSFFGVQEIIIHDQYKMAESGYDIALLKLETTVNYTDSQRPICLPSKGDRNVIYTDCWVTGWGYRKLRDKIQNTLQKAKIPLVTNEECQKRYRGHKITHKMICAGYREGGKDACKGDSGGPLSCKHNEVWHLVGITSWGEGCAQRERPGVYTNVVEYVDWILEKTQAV
T2 sequence (P03951 19-387 partner limits assumed): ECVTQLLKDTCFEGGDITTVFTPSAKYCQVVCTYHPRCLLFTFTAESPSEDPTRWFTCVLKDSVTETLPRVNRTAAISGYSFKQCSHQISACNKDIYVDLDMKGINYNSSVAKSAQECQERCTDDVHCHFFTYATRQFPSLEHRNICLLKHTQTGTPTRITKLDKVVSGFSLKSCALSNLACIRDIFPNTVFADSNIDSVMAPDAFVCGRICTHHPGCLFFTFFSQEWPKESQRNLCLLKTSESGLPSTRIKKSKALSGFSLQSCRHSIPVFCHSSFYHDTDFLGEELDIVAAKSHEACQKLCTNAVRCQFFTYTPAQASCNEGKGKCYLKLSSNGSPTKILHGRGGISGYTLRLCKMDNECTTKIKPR
T1 sequence (P03952 391-638 limits assumed): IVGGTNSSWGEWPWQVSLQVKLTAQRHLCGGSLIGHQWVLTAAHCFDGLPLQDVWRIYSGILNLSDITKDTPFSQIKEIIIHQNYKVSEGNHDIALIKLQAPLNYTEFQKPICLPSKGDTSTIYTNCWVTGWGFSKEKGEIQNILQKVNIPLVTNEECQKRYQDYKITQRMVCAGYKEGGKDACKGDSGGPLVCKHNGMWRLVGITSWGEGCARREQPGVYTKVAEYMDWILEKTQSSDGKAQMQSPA
T1 sequence (P03952 20-390 partner limits assumed): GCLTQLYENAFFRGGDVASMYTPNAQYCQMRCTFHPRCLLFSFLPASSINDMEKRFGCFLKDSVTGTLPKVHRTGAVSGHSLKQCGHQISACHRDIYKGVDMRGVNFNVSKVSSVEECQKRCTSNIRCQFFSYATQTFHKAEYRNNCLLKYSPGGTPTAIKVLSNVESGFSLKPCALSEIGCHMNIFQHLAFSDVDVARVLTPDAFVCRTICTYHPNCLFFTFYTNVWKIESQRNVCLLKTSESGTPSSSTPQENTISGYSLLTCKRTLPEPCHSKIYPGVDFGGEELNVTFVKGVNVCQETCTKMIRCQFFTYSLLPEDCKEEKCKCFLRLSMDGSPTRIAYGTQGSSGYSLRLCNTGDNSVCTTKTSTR

For the molecule `O=C1Nc2ccc(Cl)c(F)c2[C@@]2(CCCN(C(=O)c3nnc(Cc4ccccc4)[nH]3)C2)O1` [Example 86, (R)-1′-(5-Benzyl-4H-1,2,4-triazole-3-carbonyl)-6-chloro-5-fluorospiro[benzo[d][1,3]oxazine-4,3′-piperidin]-2(1H)-one], the figures for the IC50 in test [1] and in test [2] were 24.8 nM and 6890 nM, respectively.

For `CCC(c1ccc(F)cc1)c1c[nH]c(C(=O)N2CCC[C@@]3(C2)OC(=O)Nc2ccc(Cl)c(F)c23)n1` (single isomer, unassigned) [Example 71, (R)-6-Chloro-5-fluoro-1′-(4-((R or S)-1-(4-fluorophenyl)propyl)-1H-imidazole-2-carbonyl)spiro[benzo[d][1,3]oxazine-4,3′-piperidin]-2(1H)-one], the IC50 (as a rule, the concentration needed to halve the response being measured) came to 5.5 nM in test [1] and 995 nM in test [2].

`CC(C)(c1ccccc1)c1nnc(C(=O)N2CCC[C@@]3(C2)OC(=O)Nc2ccc(Cl)c(F)c23)[nH]1` [Example 93, (R)-6-Chloro-5-fluoro-1′-(5-(2-phenylpropan-2-yl)-4H-1,2,4-triazole-3-carbonyl)spiro[benzo[d][1,3]oxazine-4,3′-piperidin]-2(1H)-one]: the IC50 was 29.9 nM in test [1] and 3160 nM in test [2].

In the case of `COCC(c1ccccc1)c1n[nH]c(C(=O)N2CCC[C@@]3(C2)OC(=O)Nc2ccc(Cl)c(F)c23)n1` (stereo partly drawn) [Example 130, (4R)-6-Chloro-5-fluoro-1′-(3-(2-methoxy-1-phenylethyl)-1H-1,2,4-triazole-5-carbonyl)spiro[benzo[d][1,3]oxazine-4,3′-piperidin]-2(1H)-one], the IC50 in test [1] came out at 5.3 nM; in test [2], 1360 nM.

Regarding `CC1(C)CN(C(=O)c2nnc(C(C)(C)c3ccccc3)[nH]2)C[C@]2(C1)OC(=O)Nc1ccc(Cl)c(F)c12` [Example 95, (R)-6-Chloro-5-fluoro-5′,5′-dimethyl-1′-(5-(2-phenylpropan-2-yl)-4H-1,2,4-triazole-3-carbonyl)spiro[benzo[d][1,3]oxazine-4,3′-piperidin]-2(1H)-one], the IC50 in test [1] came to 21.4 nM; in test [2], 3010 nM.

Take `CCC(c1cccc(S(C)(=O)=O)c1)n1cc(C(=O)N2CCC[C@@]3(C2)OC(=O)Nc2ccc(Cl)c(F)c23)cn1` (single isomer, unassigned) [Example 31]: the IC50 stood at 9 nM in test [1] and 2460 nM in test [2].

Turning to `CCC(c1ccnc(C(F)(F)F)c1)n1cc(C(=O)N2CCC[C@@]3(C2)OC(=O)Nc2ccc(Cl)c(F)c23)cn1` (single isomer, unassigned) [Example 37], the IC50 in test [1] is 2.6 nM; in test [2], 1450 nM.

With `O=C1Nc2ccc(Cl)c(F)c2[C@@]2(CCCN(C(=O)c3cnc(C(O)c4ccc(F)cc4)[nH]3)C2)O1` (single isomer, unassigned) [Example 78], the IC50 is 13.7 nM in test [1] and 3850 nM in test [2].

As to `CCC(c1ccc(F)c(Cl)c1)c1nnc(C(=O)N2CCC[C@@]3(C2)OC(=O)Nc2ccc(Cl)c(F)c23)[nH]1` (single isomer, unassigned) [Example 96], the values for the IC50 in test [1] and in test [2] were 3.5 nM and 5080 nM, respectively.

As to `CCC(c1cccc(S(C)(=O)=O)c1)n1cc(C(=O)N2CCC[C@@]3(C2)OC(=O)Nc2ccc(Cl)c(F)c23)cn1` (single isomer, unassigned) [Example 30], the IC50 is 5.7 nM in test [1] and 4350 nM in test [2].

On to `CCC(c1ccc2c(c1)COC2)c1nnc(C(=O)N2CCC[C@@]3(C2)OC(=O)Nc2ccc(Cl)c(F)c23)[nH]1` (single isomer, unassigned) [Example 112], for which the IC50 in test [1] stood at 1 nM; in test [2] it was 1560 nM.

Consider `CCC(c1ccc(F)cc1)c1c[nH]c(C(=O)N2CCC[C@@]3(C2)OC(=O)Nc2ccc(Cl)c(F)c23)n1` (stereo partly drawn) [Example 70, (4R)-6-Chloro-5-fluoro-1′-(4-(1-(4-fluorophenyl)propyl)-1H-imidazole-2-carbonyl)spiro[benzo[d][1,3]oxazine-4,3′-piperidin]-2(1H)-one], for which the IC50 in test [1] is 5.7 nM; in test [2] it was 946 nM.

On to `O=C1Nc2ccc(Cl)c(F)c2[C@@]2(CCCN(C(=O)c3nc(Cc4ccccc4)c[nH]3)C2)O1` [Example 65, (R)-1′-(4-Benzyl-1H-imidazole-2-carbonyl)-6-chloro-5-fluorospiro[benzo[d][1,3]oxazine-4,3′-piperidin]-2(1H)-one], for which the IC50 came to 19.3 nM in test [1] and 1770 nM in test [2].

As for `CC1(C)CN(C(=O)c2nnc(Cc3ccccc3)[nH]2)C[C@]2(C1)OC(=O)Nc1ccc(Cl)c(F)c12` [Example 89, (R)-1′-(5-Benzyl-4H-1,2,4-triazole-3-carbonyl)-6-chloro-5-fluoro-5′,5′-dimethylspiro[benzo[d][1,3]oxazine-4,3′-piperidin]-2(1H)-one], the IC50 in test [1] came out at 14.9 nM; in test [2], 7200 nM.

For `CCC(c1cc(C)c2nc[nH]c2c1)n1cc(C(=O)N2CCC[C@@]3(C2)OC(=O)Nc2ccc(Cl)c(F)c23)cn1` (single isomer, unassigned) [Example 45, (4R)-6-Chloro-5-fluoro-1′-(1-((R or S)-1-(4-methyl-1H-benzo[d]imidazol-6-yl)propyl)-1H-pyrazole-4-carbonyl)spiro[benzo[d][1,3]oxazine-4,3′-piperidin]-2(1H)-one], the IC50 came out at 0.8 nM in test [1] and 1420 nM in test [2].

`O=C1Nc2ccc(Cl)c(F)c2[C@@]2(CCCN(C(=O)c3cnn([C@@H](CC4CC4)c4ccccc4)c3)C2)O1` (single isomer, unassigned) [Example 1]: the IC50 was determined as 6.9 nM in test [1] and 1570 nM in test [2].

Consider `O=C1Nc2ccc(Cl)c(F)c2[C@@]2(CCCN(C(=O)c3cnc(C(c4ccc(F)cc4)C(F)(F)F)[nH]3)C2)O1` (single isomer, unassigned) [Example 83], for which the IC50 was found to be 21.3 nM in test [1] and 2700 nM in test [2].

Consider `CCC(c1ccc(F)cc1)c1c[nH]c(C(=O)N2CCC[C@@]3(C2)OC(=O)Nc2ccc(Cl)c(F)c23)n1` (single isomer, unassigned) [Example 72, (R)-6-Chloro-5-fluoro-1′-(4-((S or R)-1-(4-fluorophenyl)propyl)-1H-imidazole-2-carbonyl)spiro[benzo[d][1,3]oxazine-4,3′-piperidin]-2(1H)-one], for which the concentration for half-maximal inhibition (IC50) in test [1] was determined as 9.3 nM; in test [2], 1430 nM.

`CCC(c1ccc(F)cc1)c1nnc(C(=O)N2CC(C)(C)C[C@@]3(C2)OC(=O)Nc2ccc(Cl)c(F)c23)[nH]1` (single isomer, unassigned) [Example 102]: the IC50 in test [1] is 3.6 nM; in test [2] it was 1130 nM.

In the case of `CCC(c1ccc2ncncc2c1)n1cc(C(=O)N2CCC[C@@]3(C2)OC(=O)Nc2ccc(Cl)c(F)c23)cn1` (single isomer, unassigned) [Example 42], the values for the IC50 in test [1] and in test [2] were 14.1 nM and 5230 nM, respectively.

Regarding `CCC(c1ccc2[nH]ncc2c1)n1cc(C(=O)N2CCC[C@@]3(C2)OC(=O)Nc2ccc(Cl)c(F)c23)cn1` (single isomer, unassigned) [Example 40], the IC50 in test [1] was 7.1 nM; in test [2] it was 1000 nM.

With `COCC(c1ccccc1)n1cc(C(=O)N2CCC[C@@]3(C2)OC(=O)Nc2ccc(Cl)c(F)c23)cn1` (stereo partly drawn) [Example 14, (4R)-6-Chloro-5-fluoro-1′-(1-(2-methoxy-1-phenylethyl)-1H-pyrazole-4-carbonyl)spiro[benzo[d][1,3]oxazine-4,3′-piperidin]-2(1H)-one], the values for the IC50 in test [1] and in test [2] were 16.2 nM and 1530 nM, respectively.

As for `CCC(c1ccc2c(c1)OCO2)n1cc(C(=O)N2CCC[C@@]3(C2)OC(=O)Nc2ccc(Cl)c(F)c23)cn1` (single isomer, unassigned) [Example 32], the IC50 in test [1] amounted to 4.6 nM; in test [2] it was 1790 nM.

Take `CCC(c1ccnc(C(F)(F)F)c1)c1c[nH]c(C(=O)N2CCC[C@@]3(C2)OC(=O)Nc2ccc(Cl)c(F)c23)n1` (single isomer, unassigned) [Example 73, (R)-6-Chloro-5-fluoro-1′-(4-((R or S)-1-(2-(trifluoromethyl)pyridin-4-yl)propyl)-1H-imidazole-2-carbonyl)spiro[benzo[d][1,3]oxazine-4,3′-piperidin]-2(1H)-one]: the IC50 turned out to be 8.2 nM in test [1] and 2050 nM in test [2].

Consider `O=C1Nc2ccc(Cl)c(F)c2[C@@]2(CCCN(C(=O)c3nnc(C(CC(F)(F)F)c4ccccc4)[nH]3)C2)O1` (single isomer, unassigned) [Example 98], for which the IC50 in test [1] was 1.3 nM; in test [2] it was 362 nM.

Consider `CCC(c1ccc(F)c(Cl)c1)c1nnc(C(=O)N2CCC[C@@]3(C2)OC(=O)Nc2ccc(Cl)c(F)c23)[nH]1` (single isomer, unassigned) [Example 97], for which the IC50 in test [1] was found to be 13.8 nM; in test [2] it was 8750 nM.

Consider `CCC(c1ccc(F)cc1)n1cc(C(=O)N2CCC[C@@]3(C2)OC(=O)Nc2ccc(Cl)c(F)c23)cn1` (single isomer, unassigned) [Example 25], for which the IC50 in test [1] turned out to be 10.4 nM; in test [2], 210 nM.
